Reference: ChEMBL document CHEMBL1140229, “Flavanones from the stem bark of Erythrina abyssinica” (Bioorg Med Chem, 2008)
Active and inactive are the calls of the source. The rule behind the calls is not given here.

Columns and labels:
[1] = target: T1, Tyrosine-protein phosphatase non-receptor type 1 (Homo sapiens, UniProt P18031); experiment: (§1) Inhibition of human recombinant PTP1B
T1 sequence (P18031 whole entry): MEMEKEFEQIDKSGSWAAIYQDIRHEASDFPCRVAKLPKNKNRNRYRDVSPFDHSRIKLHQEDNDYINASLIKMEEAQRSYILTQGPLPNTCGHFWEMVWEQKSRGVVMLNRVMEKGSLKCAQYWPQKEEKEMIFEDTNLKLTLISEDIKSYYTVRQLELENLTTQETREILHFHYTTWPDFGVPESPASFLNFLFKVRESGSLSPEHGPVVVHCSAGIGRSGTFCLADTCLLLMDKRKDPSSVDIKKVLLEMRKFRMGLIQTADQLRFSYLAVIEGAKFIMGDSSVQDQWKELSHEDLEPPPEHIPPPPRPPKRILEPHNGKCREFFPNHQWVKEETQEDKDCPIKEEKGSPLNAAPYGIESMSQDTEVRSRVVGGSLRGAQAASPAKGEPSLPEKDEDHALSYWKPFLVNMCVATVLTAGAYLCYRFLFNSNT

[2] = target: T2, Tyrosine-protein phosphatase non-receptor type 1 (Homo sapiens) (UniProt P18031); experiment: as §1
T2 sequence (whole entry): T1 sequence (P18031 whole entry)

| Compound | IC50 [1] [µM] | Activity [2] |
| --- | --- | --- |
| CCCCCCCCCCCCCCCC(=O)C1=C(O)[C@@H](CO)OC1=O | 4.7 |  |
| CC(C)=CCc1cc([C@@H]2CC(=O)c3c(O)cc(O)cc3O2)cc2c1OC(C)(C)C(O)C2 (some centres undefined) | 14.9 |  |
| CC1(C)Oc2c(O)cc([C@@H]3CC(=O)c4ccc(O)cc4O3)cc2CC1O (some centres undefined) | > 60 |  |
| CC1(C)Oc2c(O)cc([C@@H]3CC(=O)c4ccc(O)cc4O3)cc2C(O)C1O (some centres undefined) | > 60 |  |
| CC1(C)Oc2ccc([C@@H]3CC(=O)c4c(O)cc(O)cc4O3)cc2C(O)C1O (some centres undefined) | > 60 |  |
| CC1(C)C(C2CC(=O)c3ccccc3O2)=C(O)C(O)=C2OC(O)C(O)C(O)C21 (centres undefined) [SIGMOIDIN G] | > 60 |  |
| O=C1C[C@@H](c2ccc(O)cc2)Oc2cc(O)cc(O)c21 |  | inactive |
| CC1(C)C=Cc2cc([C@@H]3CC(=O)c4c(O)cc(O)cc4O3)c3c(c2O1)OC(C)(C)C=C3 | > 60 |  |
| CC(C)=CCc1c([C@@H]2CC(=O)c3c(O)cc(O)cc3O2)cc(O)c2c1C=CC(C)(C)O2 | 13.9 |  |
| CC(C)=CCc1cc([C@@H]2CC(=O)c3c(O)cc(O)cc3O2)cc2c1OC(C)(C)C(O)C2O (some centres undefined) | 19 |  |
| CC1(C)CC(=O)c2cc([C@@H]3CC(=O)c4c(O)cc(O)cc4O3)cc(O)c2O1 | > 60 |  |
| CC(C)=CCc1c([C@@H]2CC(=O)c3c(O)cc(O)cc3O2)cc2c(c1O)OC(C)(C)C(O)C2O (some centres undefined) | 18.2 |  |
| O=C1C[C@@H](c2ccc(O)cc2)Oc2cc(O)ccc21 |  | inactive |
| COc1c(/C=C/C(C)(C)O)cc([C@@H]2CC(=O)c3c(O)cc(O)cc3O2)cc1CC=C(C)C [BURTTINONE] | 18.9 |  |
| CC1(CO)C=Cc2cc([C@@H]3CC(=O)c4c(O)cc(O)cc4O3)cc(O)c2O1 (some centres undefined) | > 60 |  |
| CC1(C)Oc2c(O)cc([C@@H]3CC(=O)c4c(O)cc(O)cc4O3)cc2C[C@@H]1O [SIGMOIDIN D] | > 60 |  |
| C=C(C)/C=C/c1cc([C@@H]2CC(=O)c3c(O)cc(O)cc3O2)cc(CC=C(C)C)c1OC [BURTTINONEDEHYDRATE] | 21.6 |  |
| COc1cc([C@@H]2CC(=O)c3c(O)cc(O)cc3O2)cc2c1OC(C)(C)C(O)C2 (some centres undefined) | 18.2 |  |
| COc1cc([C@@H]2CC(=O)c3c(O)cc(O)cc3O2)cc2c1OC(C)(CO)C=C2 (some centres undefined) | 17.9 |  |
